Compound	melting point [°C]
Nc1ncn[nH]1	159
COc1ccccc1N1CCN(CC(N)=S)CC1	130 to 132
O=[N+]([O-])c1ccccc1C(F)(F)F	32.5
c1cc2c(cc1CN1CCNCC1)OCO2	43
Brc1ccc2c(c1)Oc1ccc(Br)cc1O2	193
COC(=O)[C@H]1C[C@]2(Sc3ccccc3)O[C@@]1(c1ccc(OC)cc1)c1c2cc(Cl)nc1Cl	118
c1ccc2sc(SNC3CCCCC3)nc2c1	98
O=C(O)c1cc2cc(Br)ccc2o1	257 to 260
CNC(=O)C=C(C)OP(=O)(OC)OC	55
COc1c(Cl)cc([N+](=O)[O-])cc1Cl	97 to 100
Brc1cc(Br)c(Oc2cc(Br)c(Br)cc2Br)cc1Br	160 to 163
O=Cc1ccc(F)c(Br)c1	31
ON(c1ccccc1)C(Br)C(Br)c1ccccc1 (configuration not stated)	125
Cc1nc(-c2cccc(CO)c2)no1	56 to 58
COc1cccc(C=CC(=O)O)c1	116 to 119
Cc1cc(Cl)ccc1OCC(=O)O	120
O=C1C=C(Cl)C(=O)C(Cl)=C1	123
O=Cc1cccc(-c2cncnc2)c1	148 to 149
CCCCOc1ccc(/N=N/c2ccc(CCCC)cc2)cc1	64 to 66
CCOC(=O)C(=CN(O)c1ccccc1)c1ccccc1	75
O=C(O)c1cccc(OC(F)(F)F)c1	89
CCOC(=O)CC(=O)c1cccc([N+](=O)[O-])c1	75 to 77
COC(=O)c1ccccc1NC(C)=O	97 to 101
CCCCCCCCCCCCCCCC#N	31
O=C(O)CCC(=O)OOC(=O)CCC(=O)O	127
COC(=O)c1ccc([N+](=O)[O-])c(OC)c1	85
CC(=O)C(=NNc1cccc([N+](=O)[O-])c1)C(C)=O	184

Compound	melting point [°C]
CC1(C)c2ccccc2NC1C(N)=O (configuration not stated)	168 to 170
NS(=O)(=O)c1ccc(F)c2nonc12	144 to 146
Cc1ccc2[nH]c3ccccc3c2c1	208
NC(CN(Cc1ccccc1)c1ccccc1)=NO	107
O=C(C(Cl)Cl)C(Cl)(Cl)Cl	2.1
CC(/C=C(\C)c1ccc(-c2ccccc2)cc1)=NNS(=O)(=O)c1ccc([N+](=O)[O-])c([N+](=O)[O-])c1	200 to 201
CCOC(=O)c1ccc(Br)cc1	18
CC(=O)OCC(=O)C1(O)CCC2C3CC(C)C4=CC(=O)C=CC4(C)C3C(O)CC21C (configuration not stated)	206
N#Cc1ccccc1CN1CCOCC1	49 to 50
O=Nc1c(-c2ccc([N+](=O)[O-])cc2)nc2ncccn12	191
CC1(C)OC(=O)C(c2ccccc2)C(=O)O1	135 to 140
CCC(=O)c1cccc(Br)c1	40
CCCCCCSc1nnc(S)s1	75
CCC(C)(CC)c1cc(NC(=O)c2c(OC)cccc2OC)on1	178
Sc1nc(-c2ccccc2)cs1	174
ClCc1cc2c(cc1Cl)OCO2	64
CC(C)(C)CCO	-60
CCC(C)(N)P(=O)(O)O (configuration not stated)	268 to 272
C#CC1(O)CCC2C3CCC4=CC(=O)CCC4(C)C3CCC21C (configuration not stated)	269
CN(C)C(=O)COC1CCN(C(=O)OC(C)(C)C)CC1	58
CCCc1cc(C)cc(C)c1	-59
COC(=O)c1cnc(SCC(=O)NC(=O)Nc2ccc(Cl)cc2)n1C	208 to 209
Cc1ccc(S(=O)(=O)CC(=O)O)cc1	118
CCc1ccccc1O	18
CC12CCC3c4ccc(OC(=O)Cc5ccc(N(CCCl)CCCl)cc5)cc4CCC3C1CCC2OC(=O)Cc1ccc(N(CCCl)CCCl)cc1 (configuration not stated)	52.5
CCC#CCCCCC(=O)O	14
CCCC(C)C(O)CC (configuration not stated)	-123

Compound	melting point [°C]
NS(=O)(=O)c1cc2c(cc1C(F)(F)F)NCNS2(=O)=O	272
CCOc1nc(NC)nc(NC(=O)NS(=O)(=O)c2ccccc2C(=O)OC)n1	194
CN1CC(c2ccccc2)(c2ccccc2)C(=O)c2c(cc(-c3ccccc3)c3ccccc23)C1=O	265
CC(C)(C)N(NC(=O)c1ccccc1)C(=O)c1ccc(Cl)cc1Cl	134
Cc1c(CN2CCOC(c3ccccc3)C2C)c(=O)n(-c2ccccc2)n1C (configuration not stated)	149
CCOC(=O)[C@]12C[C@@H](c3ccccc3)c3ccccc3[C@H]1c1ccccc1OC2=O	162
Nc1ccc(Cl)c(Cl)c1Cl	73
CCC(C(=O)O)c1ccccc1 (configuration not stated)	47.5
CC(C)c1cc(Br)c(N)c(Br)c1	46
CCC(O)(COC(N)=O)c1ccccc1 (configuration not stated)	55
CCOC(=O)C(C#N)=C1SCCS1	106
Cn1nc(C=O)cc1-c1ccco1	62 to 64
OC1CCc2ccccc2C1 (configuration not stated)	15.5
N#CCc1cc(C(F)(F)F)ccc1Cl	32
CCCCCCCCOc1ccc(C=O)cc1OCCCCCCCC	54 to 56
NC(=S)Nc1ccccc1F	143 to 145
O=C1c2ccc(C=NO)cc2C(=O)c2c(Cl)c(Cl)c(Cl)c(Cl)c21	234 to 235
O=C(Cl)COc1ccc(Cl)cc1	19
CC(C)Oc1cc(-n2nc(C(C)(C)C)oc2=O)c(Cl)cc1Cl	90
COc1cc2nc(N3CCN(C(=O)c4ccco4)CC3)nc(N)c2cc1OC	285
c1ccc(OCc2nnc3sc(-c4cccc5ccccc45)nn23)cc1	134
O=C(OCCO)c1ccccc1	45
Cc1ccc2c(c1)C(=O)c1cc(C)ccc1C2=O	163
CCOC(=O)C(O)C(O)C(=O)OCC (configuration not stated)	17
N#C/C(=N\Nc1cccc(O)c1)c1nc2ccccc2s1	175

Next, values leading:

melting point [°C]	Compound
194	O=C(NCc1ccccc1)C(C(F)(F)F)C(F)(F)F
47 to 50	O=S(=O)(Cl)c1cc(OCC(F)(F)F)ccc1OCC(F)(F)F
-50	CCCC(C)I (configuration not stated)
155 to 161	CS(=O)(=O)c1ccc(C=O)cc1
175	Cc1ccc(S(=O)(=O)NC(=O)NC2CCCCC2)cc1
196 to 201	O=C(O)c1cc(I)ccc1O
76 to 78	Brc1ccc2nccn2c1
174	Nc1cc(Cl)nc(Cl)c1
87 to 90	OCc1csc(-c2cccs2)n1
88	CC(C)(C)[Si](C)(C)Cl
218	Cc1c(C(=O)O)sc2c1CCCC2
129	Cc1cc(C#N)cc(Cl)c1N
278 to 281	O=c1cc(C=C(O)C(F)(F)C(F)(F)F)[nH]c(=O)[nH]1
23	OCc1ccc(F)cc1
292	BrCc1c(CBr)c(CBr)c(CBr)c(CBr)c1CBr
19	O=C(O)CC1C=CCC1 (configuration not stated)
167	CCOC(=O)c1cc2cc3cc(C(=O)OCC)c(C)nc3cc2nc1C
167	O=C(O)c1cccc(-c2ccccc2)c1
93 to 96	COC(=O)c1csc(S(=O)(=O)Cl)c1OC
107 to 109	CN1CCOc2cc(C#N)cnc21
205 to 215	O=C(O)c1cc(N(Cc2ccccc2O)Cc2cc(O)ccc2O)ccc1O
205	CNc1ccc2cc3ccc4c(c3nc2c1CO)COCN4S(C)(=O)=O
106	Cc1ccccc1NN=C1C(=O)OC(C)(C)OC1=O
155	Cc1ccc2cc3c(cc2n1)CCC(C)N3C(=O)c1ccccc1 (configuration not stated)

melting point [°C]	Compound
280	Nc1nnc(-c2ccc([N+](=O)[O-])o2)s1
134	CCCCCCCCCCCCOc1ccc(C(=O)O)cc1
206	COc1ccc(C2Nn3c(nnc3-c3cccc([N+](=O)[O-])c3)S2)cc1 (configuration not stated)
40.5	CN(C)C(=O)CCCOC(=O)c1ccccc1
128 to 131	CON1C(=O)C(=O)N(OC)C2CCCCC21 (configuration not stated)
156	O=C(O)c1ccc2c(c1)OC(F)(F)O2
118 to 122	O=C(O)C(F)(F)C(F)(F)C(F)(F)C(F)(F)C(F)(F)C(F)(F)C(F)(F)C(F)(F)C(F)(F)C(F)(F)C(F)(F)C(F)(F)F
37.3	CCCCCCCCCCCCCCCN
153 to 155	CCOC(=O)Cc1nc(O)cs1
87 to 88	O=Cc1ccc(-c2ccc(OC(F)(F)F)cc2)o1
164	CC(=O)/C=C/c1cc(N(C)C)ccc1Cc1ccc(N(C)C)cc1I
242	CS(=O)(=O)c1ccc(-c2cn3ccccc3n2)cc1
145	O=C(N[C@H](Cc1ccccc1F)C(=O)O)OCC1c2ccccc2-c2ccccc21
54 to 57	OC(c1ccccc1)c1c(F)c(F)c(F)c(F)c1F (configuration not stated)
57 to 58	Cc1cc(Cl)cc(Cl)c1N=C=S
53	CCN(CC)C(C)CN1c2ccccc2Sc2ccccc21 (configuration not stated)
29.5	COc1ccc(N)c(C)c1
168 to 169	Cc1ncc([N+](=O)[O-])n1CCCN1C(=O)c2ccccc2C1=O
179	Cn1cncc1CC1COC(=O)C1C(O)c1ccccc1 (configuration not stated)
232 to 233	O=[N+]([O-])c1ccc(-n2cc[nH]c2=S)cc1
54 to 57	S=P(N1CC1)(N1CC1)N1CC1
35	CC(=O)OC1CCCCC1C(C)(C)C (configuration not stated)
244	COc1cc(C2c3cc4c(cc3C(OC3OC5COC(c6cccs6)OC5C(O)C3O)C3COC(=O)C23)OCO4)cc(OC)c1O (configuration not stated)
101	O=S(=O)(Cl)c1ccc(-c2cnco2)cc1

— a melting point compilation (Tetko et al.)
